Experimental data: patent US11766430B2, “Methods of using a phenoxypropylamine compound to treat pain” (Minerva Neurosciences, Inc., priority 2018, dated 2023)
Where “and” joins values, the source holds several entries; their conditions need not be identical. Equal entries are not always repeated.

Tested on: carrageenan-induced mechanical hyperalgesia in rats
Test: Carrageenan-induced mechanical hyperalgesia, paw pressure test, time course to 240 min (Example 2)
Assay type: in vivo, male Sprague-Dawley rats
Settings: 3 mg/kg s.c.
Method: In this model, inflammation is induced by intraplantar injection of carrageenan (2%) into the right hindpaw of the rat. Three hours later, reaction thresholds are measured using the paw pressure test. Pressure is gradually applied to both hind paws (inflamed and control) of the rat, and reaction thresholds are determined as the pressure (g) required to elicit paw withdrawal or vocalization. Morphine (3 mg/kg, s.c.) was used as a positive control.
The experiments in this study used fifty (50) male Sprague-Dawley rats (SPF status, Janvier, France), each weighing 204-260 grams. The rats were housed in a temperature (20-24° C.) and relative humidity (45%-65%) controlled room and acclimated to an artificial day/night cycle of 12 hours light (6.30 a.m. to 6.30 p.m.)/12 hours darkness. Rats had free access to sterilized tap water and were fed ad libitum with pelleted complete diet (reference A04, S.A.F.E.). Rats were housed 4 per cage (cages Type E) and were acclimated for a period of at least 5 days before any testing. Each rat was identified by tail markings. Based on the SPF status of the animal facilities, there is no reason to expect that contaminants were present in the food, water or bedding, at levels capable of interfering with the results of the tests.
Pain Test: Static mechanical hyperalgesia was assessed using the Paw Pressure test or Randall & Selitto test (Randall, L. O. and Selitto, J. J., A method for measurement of analgesic activity on inflamed tissue, Arch Int Pharmacodyn, 1957(111): 409-419). This test requires the application of an increasing pressure on the hind paws between a flat surface and a blunt pointer. This test is usually used with animals with one hind paw inflamed by an injection or injured by ligation, and one normal hind paw, to evaluate drugs for analgesic action. The apparatus exerts a steadily increasing force and reaction threshold is determined as the pressure (g) required to elicit paw withdrawal and/or vocalization. In the experiment, animals were gently handled by the experimenter and static mechanical hyperalgesia was assessed. Each reaction threshold measurement was done for both hind paws.
Five (5) experimental groups of 10 rats each were used. Each group was first injected with of 100 μL of a 2% carrageenan suspension in the plantar aspect of the right hindpaw. Three hours after carrageenan injection, paw withdrawal threshold was measured using the paw pressure test (Baseline). The 5 groups were then administered the following: • Group 1: vehicle (0.5% HPMC), i.p., solution (negative control); • Group 2: MIN-117 (0.01 mg/kg, i.p.) in 0.5% HPMC, suspension; • Group 3: MIN-117 (0.1 mg/kg, i.p.) in 0.5% HPMC, suspension; • Group 4: MIN-117 (1 mg/kg, i.p.) in 0.5% HPMC, suspension; and • Group 5: morphine (3 mg/kg, s.c.) in 0.9% NaCl, solution (positive control).
After administering vehicle, MIN-117, or morphine, the antihyperalgesic effect of the compounds was evaluated using the paw pressure test at 0 min. (T0), 30 min., 60 min., 120 min., and 240 min.
Vehicle and MIN-117 were administered intraperitoneally at 10 mL/kg. Morphine was subcutaneously administered at 5 mL/kg. Dosing and testing were performed in a random order by a blinded experimenter except for the morphine-treated group. Doses were expressed in terms of free active substance. Rats were sacrificed at the end of the experiment by CO2 inhalation pending subsequent removal by a certified company.
Results were assessed as: the paw withdrawal threshold (mean±s.e.m.) in grams of contact pressure for each group, calculated from individual paw withdrawal thresholds; the percentage of variation of the paw withdrawal threshold calculated from the mean value of the vehicle-treated group; and/or the percentage of activity. To determine a statistical effect of the test substance and the reference substance, data were analyzed by a non-parametrical test. The significance level was p<0.05.

[1] = 120 min, listed as Morphine HCl
[2] = 240 min, listed as Morphine HCl
[3] = Baseline, listed as Morphine HCl
[4] = T0 (baseline before dosing), listed as Morphine HCl
[5] = T0 + 30 min, listed as Morphine HCl

CN1CC[C@]23c4c5ccc(O)c4O[C@H]2[C@@H](O)C=C[C@H]3[C@H]1C5 [Morphine, reference compound]
Time of maximum effect on injured paw withdrawal threshold after treatment: 30 min
Nociceptive threshold, control paw, individual rats (30 min, listed as Morphine HCl): 680 g (9×) and 520 g
Nociceptive threshold, injured paw, individual rats (30 min, listed as Morphine HCl): 600 g and 620 g (2×) and 560 g and 640 g and 680 g (3×) and 440 g and 400 g
Nociceptive threshold, control paw, individual rats (60 min, listed as Morphine HCl): 580 g and 680 g (8×) and 520 g
Nociceptive threshold, injured paw, individual rats (60 min, listed as Morphine HCl): 440 g and 600 g (3×) and 460 g and 620 g (2×) and 680 g and 480 g and 380 g
Nociceptive threshold, control paw, individual rats [1]: 480 g and 320 g and 440 g (3×) and 500 g and 380 g and 520 g and 460 g and 360 g
Nociceptive threshold, injured paw, individual rats [1]: 280 g (3×) and 260 g and 400 g and 320 g (2×) and 440 g and 220 g and 200 g
Nociceptive threshold, control paw, individual rats [2]: 320 g (4×) and 360 g (4×) and 400 g and 420 g
Nociceptive threshold, injured paw, individual rats [2]: 160 g (3×) and 180 g (3×) and 200 g (2×) and 240 g and 140 g
Nociceptive threshold, control paw, individual rats [3]: 320 g (2×) and 440 g and 420 g (3×) and 360 g (2×) and 460 g and 380 g
Nociceptive threshold, injured paw, individual rats [3]: 160 g and 200 g (5×) and 220 g and 180 g (3×)
% activity, injured paw (T0 (baseline before dosing)): 2%
% variation vs control paw, injured paw (T0 (baseline before dosing)): −51%
% variation vs vehicle-treated group, injured paw (T0 (baseline before dosing)): 5%
Nociceptive threshold, control paw (mean ± s.e.m.) (T0 (baseline before dosing)): 390.0 ± 15.6 g
Nociceptive threshold, injured paw (mean ± s.e.m.) (T0 (baseline before dosing)): 192 ± 5.3 g
Nociceptive threshold, control paw (mean ± s.e.m.) [4]: 390. g
Nociceptive threshold, injured paw (mean ± s.e.m.) [4]: 192 g
% activity, injured paw (T0 + 30 min): 230%
% variation vs control paw, injured paw (T0 + 30 min): −11%
% variation vs pre-drug threshold, injured paw (T0 + 30 min): 208%
Nociceptive threshold, control paw (mean ± s.e.m.) (T0 + 30 min): 664 g
Nociceptive threshold, injured paw (mean ± s.e.m.) (T0 + 30 min): 592 ± 31.3 g
% variation vs vehicle-treated group, injured paw [5]: 233%
Nociceptive threshold, injured paw (mean ± s.e.m.) [5]: 592 g
% activity, injured paw (T0 + 60 min): 214%
% variation vs control paw, injured paw (T0 + 60 min): −16%
% variation vs pre-drug threshold, injured paw (T0 + 60 min): 185%
% variation vs vehicle-treated group, injured paw (T0 + 60 min): 191%
Nociceptive threshold, control paw (mean ± s.e.m.) (T0 + 60 min): 654 g
Nociceptive threshold, injured paw (mean ± s.e.m.) (T0 + 60 min): 548 ± 31.3 g
Nociceptive threshold, injured paw (mean ± s.e.m.) (T0 + 60 min, listed as Morphine HCl): 548 g
% activity, injured paw (T0 + 120 min): 72%
% variation vs control paw, injured paw (T0 + 120 min): −31%
% variation vs pre-drug threshold, injured paw (T0 + 120 min): 56%
% variation vs vehicle-treated group, injured paw (T0 + 120 min): 61%
Nociceptive threshold, control paw (mean ± s.e.m.) (T0 + 120 min): 434 g
Nociceptive threshold, injured paw (mean ± s.e.m.) (T0 + 120 min): 300 ± 23.5 g
Nociceptive threshold, injured paw (mean ± s.e.m.) (T0 + 120 min, listed as Morphine HCl): 300 g
% activity, injured paw (T0 + 240 min): −4%
% variation vs control paw, injured paw (T0 + 240 min): −49%
% variation vs pre-drug threshold, injured paw (T0 + 240 min): −6%
% variation vs vehicle-treated group, injured paw (T0 + 240 min): −3%
Nociceptive threshold, control paw (mean ± s.e.m.) (T0 + 240 min): 354 g
Nociceptive threshold, injured paw (mean ± s.e.m.) (T0 + 240 min): 180 ± 8.9 g
Nociceptive threshold, injured paw (mean ± s.e.m.) (T0 + 240 min, listed as Morphine HCl): 180 g
Effect on injured paw withdrawal threshold vs vehicle-treated group (in words) (from 30 min. to 120 min. after administration): marked and significant increase
